According to ChEMBL document CHEMBL1201862, “PubChem BioAssay data set” (2004):
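Interpolation was linear, between the two tested concentrations surrounding the appropriate level; five concentrations were tested over 48 hours in 96-well plates. GI50 = concentration required for 50% inhibition of growth.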 Active and inactive are the calls of the source. Cut-off read from the data, not from the text of the source: active = GI50 up to about 1.1 µM and inactive = higher.

Tests used:
Assay in all cases: inhibition of tumour cell growth, NCI panel, 48 h
786-0 = tested on: 786-0
DU-145 = tested on: DU-145
HT-29 = tested on: HT-29
Hs-578T = tested on: Hs-578T
K562 = tested on: K562
M14 = tested on: M14
OVCAR-8 = tested on: OVCAR-8
PC-3 = tested on: PC-3
SF-268 = tested on: SF-268
SF-295 = tested on: SF-295
SK-MEL-2 = tested on: SK-MEL-2
SK-MEL-5 = tested on: SK-MEL-5
SNB-75 = tested on: SNB-75
SW-620 = tested on: SW-620
T47D = tested on: T47D
U-251 = tested on: U-251
UACC-62 = tested on: UACC-62

Structure (SMILES) | GI50 (786-0) | GI50 (DU-145) | GI50 (HT-29) | GI50 (Hs-578T) | GI50 (K562) | GI50 (M14) | GI50 (OVCAR-8) | GI50 (PC-3) | GI50 (SF-268) | GI50 (SF-295) | GI50 (SK-MEL-2) | GI50 (SK-MEL-5) | GI50 (SNB-75) | GI50 (SW-620) | GI50 (T47D) | GI50 (U-251) | GI50 (UACC-62)
CC(=O)N1N=C(c2ccc3ccccc3c2O)CC1c1ccc(N(C)C)cc1 (stereo unspecified) | > 100 µM (inactive) | > 100 µM (inactive) | > 100 µM (inactive) | > 100 µM (inactive) | > 100 µM (inactive) | > 100 µM (inactive) | > 100 µM (inactive) | > 100 µM (inactive) | > 100 µM (inactive) | > 100 µM (inactive) | > 100 µM (inactive) | > 100 µM (inactive) | > 100 µM (inactive) | > 100 µM (inactive) | > 100 µM (inactive) | > 100 µM (inactive) | > 100 µM (inactive)
C=CC1=C(C)c2cc3[nH]c(c4c5nc(cc6[nH]c(cc1n2)c(C)c6CC)C(C)=C5C(=O)[C@@H]4C(=O)OC)[C@@H](CCC(=O)O)[C@@H]3C | 7.71 µM (inactive) | 33.8 µM (inactive) | 8.43 µM (inactive) | 3.66 µM (inactive) | 1.38 µM (inactive) | 3.66 µM (inactive) | 3.52 µM (inactive) | 3.62 µM (inactive) | 9.82 µM (inactive) | 2.12 µM (inactive) | 4.13 µM (inactive) | 1.42 µM (inactive) | 2.11 µM (inactive) | 2.5 µM (inactive) | 5.81 µM (inactive) | 3.06 µM (inactive) | 2.16 µM (inactive)
Cc1cn(C(=O)NC23CC4CC(CC(C4)C2)C3)c(=O)[nH]c1=O | 37.2 µM (inactive) | > 100 µM (inactive) | 33.8 µM (inactive) | 32.7 µM (inactive) | 31.6 µM (inactive) | 36.1 µM (inactive) | 32.7 µM (inactive) | 35 µM (inactive) | 37.5 µM (inactive) | 36.5 µM (inactive) | 19.9 µM (inactive) | 38.3 µM (inactive) | 31.7 µM (inactive) | 40.6 µM (inactive) | 31.3 µM (inactive) | 43.5 µM (inactive) | 21.8 µM (inactive)
CN(C)/C=N/NC(=O)/C(C#N)=C/N(C)C | > 100 µM (inactive) | > 100 µM (inactive) | > 100 µM (inactive) | > 100 µM (inactive) | > 100 µM (inactive) | > 100 µM (inactive) | > 100 µM (inactive) | > 100 µM (inactive) | > 100 µM (inactive) | > 100 µM (inactive) | > 100 µM (inactive) | > 100 µM (inactive) | > 100 µM (inactive) | > 100 µM (inactive) | > 100 µM (inactive) | > 100 µM (inactive) | > 100 µM (inactive)
COC(=O)c1c(C)cccc1C1CN=NC12Cc1cc(C)c(C)cc1C2=O (stereo unspecified) | 62.4 µM (inactive) | > 100 µM (inactive) | 36.8 µM (inactive) | 96.4 µM (inactive) | 25.4 µM (inactive) | 40.6 µM (inactive) | 78.7 µM (inactive) | 34.7 µM (inactive) | 66.5 µM (inactive) | 48.5 µM (inactive) | 31 µM (inactive) | 17.1 µM (inactive) | 38.1 µM (inactive) | 52.6 µM (inactive) | 40.6 µM (inactive) | 41.6 µM (inactive) | 69.5 µM (inactive)
CC(=O)O[C@H]1C(=O)[C@@]2(C)[C@H]([C@H](OC(=O)c3ccccc3)[C@]3(O)C[C@H](OC(=O)[C@H](O)[C@@H](NC(=O)c4ccccc4)c4cccc(N(C)C)c4)C(C)=C1C3(C)C)[C@]1(OC(C)=O)CO[C@@H]1C[C@@H]2O | 0.389 µM (active) | 0.302 µM (active) | 0.0219 µM (active) | 0.0276 µM (active) | 0.0324 µM (active) | 0.098 µM (active) | 0.155 µM (active) | 0.209 µM (active) | 0.337 µM (active) | 0.142 µM (active) | 0.0301 µM (active) | 0.0417 µM (active) | 1.01 µM (active) | 0.0409 µM (active) | 0.401 µM (active) | 0.0608 µM (active) | 0.254 µM (active)
COc1ccc(Oc2cnn(C(Br)(Br)C(C)=O)c(=O)c2Br)cc1 | 13.9 µM (inactive) | 19.2 µM (inactive) | 15.3 µM (inactive) | 26.1 µM (inactive) | 3.85 µM (inactive) | 13.9 µM (inactive) | 13.3 µM (inactive) | 14.1 µM (inactive) | 14.6 µM (inactive) | 18.2 µM (inactive) | 16.3 µM (inactive) | 16 µM (inactive) | 15 µM (inactive) | 4.56 µM (inactive) | 18.5 µM (inactive) | 13.9 µM (inactive) | 15.7 µM (inactive)
O=C1C(C(O)(C(F)(F)Cl)C(F)(F)Cl)CCC1C(O)(C(F)(F)Cl)C(F)(F)Cl (stereo unspecified) | > 10 µM (inactive) | 3.81 µM (inactive) | 3.26 µM (inactive) | 1.9 µM (inactive) | > 10 µM (inactive) | 7.78 µM (inactive) | 3.94 µM (inactive) | 4.53 µM (inactive) | 3.57 µM (inactive) | 2.58 µM (inactive) | 2.3 µM (inactive) | 5.94 µM (inactive) | 3.7 µM (inactive) | 4.15 µM (inactive) | 4.44 µM (inactive) | 4.4 µM (inactive) | 3.25 µM (inactive)
